Source: paper PMC11219871, “Epigenetic-based differentiation therapy for Acute Myeloid Leukemia” (Nature Communications, 2024)
Where “and” joins values, the source holds several entries; their conditions need not be identical. Identical values can stand only once.

How the values were obtained:
[1] = tested on: LINE-1 DNA methylation in MV4-11; test: LINE-1 pyrosequencing; assay type: cell-based, human
Description: (§1) DNA methylation of the repetitive element LINE-1 was analyzed using a pyrosequencing technique. […] Cells were washed twice with PBS, and then genomic DNA was extracted using a DNA Kit (Nucleo Spin Tissue, Cat No 74095250, Macherey-Nagel) following the manufacturer's instructions. DNA purity and concentration were measured using a NanoDrop spectrophotometer (Thermo Scientific). A 1 μg amount of genomic DNA was treated and modified using a CpGenome DNA modification Kit (Cat No S7820, Chemicon International) following the manufacturer's instructions. […] [NT]) in a final volume of 25 μL. The resulting biotinylated PCR products were immobilized to Streptavidin Sepharose ® High-Performance beads (GE Healthcare) and processed to yield high-quality ssDNA using the PyroMark Vacuum Prep Workstation (Biotage) according to the manufacturer's instructions. The pyrosequencing reactions were performed using the PyromarkTM ID (Biotage), and sequence analysis was performed using the PyroQ-CpG analysis software (Biotage).

[2] = tested on: LINE-1 DNA methylation in ML-2; test: LINE-1 pyrosequencing; assay type: cell-based, human
Description: as §1

[3] = tested on: LINE-1 DNA methylation in MOLM-13; test: LINE-1 pyrosequencing; assay type: cell-based, human
Description: as §1

[4] = tested on: LINE-1 DNA methylation in HL-60; test: LINE-1 pyrosequencing; assay type: cell-based, human
Description: as §1

HDAC3 = HDAC3 (Homo sapiens, UniProt O15379); test: HDAC enzymatic assay, fluorescence-labeled substrate; assay type: biochemical
HDAC9 = molecular target: T1, HDAC9 (Homo sapiens, UniProt Q9UKV0); test: HDAC assay (Eurofins); assay type: biochemical
T1 construct: purchased Eurofins (contracted assay service)

HDAC5 = molecular target: T2, HDAC5 (Homo sapiens, UniProt Q9UQL6); test: HDAC assay (Eurofins); assay type: biochemical
T2 construct: purchased Eurofins (contracted assay service)

Rag2-/-γc-/- mice = test: Toxicity assay: hematological and liver parameters, liver histology; assay type: in vivo, mouse; details: for ALT (Counts (U/L)) / AST (Counts (U/L)) / Bilirubin (Counts (mg/dl)) / HDL (Counts (mmol/l)) / LCLC3 (Counts (mmol/l)) / UREA (Counts (mg/dl)) / Hematocrit (Counts (%)) / Hemoglobin (Counts (g/dl)) / PLT (Counts (K/O)) / RBC (Counts (K/O)) / WBC (Counts (K/O)): healthy Rag2-/-γc-/- mice, individual mice, 10 mg/kg; for ALT (Counts (U/L)) / AST (Counts (U/L)) / Bilirubin (Counts (mg/dl)) / HDL (Counts (mmol/l)) / LCLC3 (Counts (mmol/l)) / UREA (Counts (mg/dl)): 10 mg/kg i.p. daily for 3 weeks then 7-day washout; for Hematocrit (Counts (%)) / Hemoglobin (Counts (g/dl)) / PLT (Counts (K/O)) / RBC (Counts (K/O)) / WBC (Counts (K/O)): 10 mg/kg i.p. daily for 3 weeks
Description: After treating Rag2^−/−γc^−/− mice with i.p. […] Hematological and liver parameters were measured.
Hematological parameters, including white blood cells, red blood cells, platelet count, hemoglobin and hematocrit, were measured on a Hemavet Hematology Analyzer (Drew Scientific). Liver enzymes (albumin, alkaline phosphatase, aspartate transaminase, alanine transaminase), cholesterol, bilirubin, urea and bile acid levels were analyzed from mice serum using a C311 Cobas Analyzer (Roche Diagnostics).
Mice livers were fixed in paraformaldehyde at 4% for 6–8 h, washed twice with saline solution and stored in 70% ethanol. Samples were included in paraffin, and 3-µm serial sections were cut, deparaffinated, and stained with hematoxylin–eosin.

T1 sequence (Q9UKV0 whole entry): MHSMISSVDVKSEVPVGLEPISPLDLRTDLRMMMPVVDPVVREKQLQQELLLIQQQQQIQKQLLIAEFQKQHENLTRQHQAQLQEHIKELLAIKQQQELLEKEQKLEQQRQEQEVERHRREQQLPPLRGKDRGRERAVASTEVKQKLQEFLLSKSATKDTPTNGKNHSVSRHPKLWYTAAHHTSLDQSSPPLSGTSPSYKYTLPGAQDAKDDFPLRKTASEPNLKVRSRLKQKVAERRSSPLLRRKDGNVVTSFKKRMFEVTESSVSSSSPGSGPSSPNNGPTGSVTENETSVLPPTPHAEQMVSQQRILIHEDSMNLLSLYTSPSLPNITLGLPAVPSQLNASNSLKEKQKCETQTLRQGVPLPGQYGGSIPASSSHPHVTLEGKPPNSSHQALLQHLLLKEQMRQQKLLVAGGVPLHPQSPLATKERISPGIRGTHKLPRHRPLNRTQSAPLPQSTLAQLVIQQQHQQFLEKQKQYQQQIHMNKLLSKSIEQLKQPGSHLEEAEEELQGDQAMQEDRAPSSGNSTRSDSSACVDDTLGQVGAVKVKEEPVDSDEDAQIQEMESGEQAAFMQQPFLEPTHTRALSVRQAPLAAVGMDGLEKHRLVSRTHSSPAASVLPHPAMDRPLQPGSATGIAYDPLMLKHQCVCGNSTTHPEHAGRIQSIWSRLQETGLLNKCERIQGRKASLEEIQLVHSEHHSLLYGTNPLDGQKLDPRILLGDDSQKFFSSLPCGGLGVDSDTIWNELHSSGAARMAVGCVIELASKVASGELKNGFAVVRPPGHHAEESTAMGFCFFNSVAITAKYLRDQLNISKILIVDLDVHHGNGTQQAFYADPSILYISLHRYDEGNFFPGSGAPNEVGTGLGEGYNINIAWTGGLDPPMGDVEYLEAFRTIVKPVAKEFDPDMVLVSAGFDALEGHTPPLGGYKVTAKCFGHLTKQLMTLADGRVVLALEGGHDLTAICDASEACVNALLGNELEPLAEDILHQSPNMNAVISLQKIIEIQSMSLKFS
T2 sequence (Q9UQL6 whole entry): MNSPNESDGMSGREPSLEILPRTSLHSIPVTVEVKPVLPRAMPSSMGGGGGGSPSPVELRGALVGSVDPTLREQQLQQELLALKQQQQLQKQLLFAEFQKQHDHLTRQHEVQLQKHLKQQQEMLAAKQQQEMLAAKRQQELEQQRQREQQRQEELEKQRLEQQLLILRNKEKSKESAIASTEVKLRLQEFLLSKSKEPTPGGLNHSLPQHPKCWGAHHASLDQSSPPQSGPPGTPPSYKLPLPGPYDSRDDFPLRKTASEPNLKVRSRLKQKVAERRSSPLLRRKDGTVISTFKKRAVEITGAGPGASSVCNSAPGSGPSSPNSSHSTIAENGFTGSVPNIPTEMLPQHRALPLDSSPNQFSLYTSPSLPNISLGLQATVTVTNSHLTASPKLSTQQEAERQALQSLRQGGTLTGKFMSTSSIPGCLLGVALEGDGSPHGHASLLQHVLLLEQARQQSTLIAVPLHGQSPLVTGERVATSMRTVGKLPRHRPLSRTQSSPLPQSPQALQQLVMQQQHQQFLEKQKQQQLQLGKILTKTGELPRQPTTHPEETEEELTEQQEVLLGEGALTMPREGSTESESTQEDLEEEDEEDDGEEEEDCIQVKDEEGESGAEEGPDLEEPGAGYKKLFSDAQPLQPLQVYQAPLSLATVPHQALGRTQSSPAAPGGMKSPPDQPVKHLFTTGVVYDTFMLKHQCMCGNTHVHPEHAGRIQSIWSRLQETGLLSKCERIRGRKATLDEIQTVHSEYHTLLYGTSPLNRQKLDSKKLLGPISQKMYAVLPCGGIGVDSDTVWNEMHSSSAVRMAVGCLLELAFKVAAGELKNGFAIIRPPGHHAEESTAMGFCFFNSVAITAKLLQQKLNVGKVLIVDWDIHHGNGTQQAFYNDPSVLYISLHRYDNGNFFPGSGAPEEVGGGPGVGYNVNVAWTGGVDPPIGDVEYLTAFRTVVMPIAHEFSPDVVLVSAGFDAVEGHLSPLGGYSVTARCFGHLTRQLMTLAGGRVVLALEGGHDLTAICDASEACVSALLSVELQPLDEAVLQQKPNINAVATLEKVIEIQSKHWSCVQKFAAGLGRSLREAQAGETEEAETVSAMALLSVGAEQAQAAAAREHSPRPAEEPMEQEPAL
HDAC3, sequence (O15379 whole entry): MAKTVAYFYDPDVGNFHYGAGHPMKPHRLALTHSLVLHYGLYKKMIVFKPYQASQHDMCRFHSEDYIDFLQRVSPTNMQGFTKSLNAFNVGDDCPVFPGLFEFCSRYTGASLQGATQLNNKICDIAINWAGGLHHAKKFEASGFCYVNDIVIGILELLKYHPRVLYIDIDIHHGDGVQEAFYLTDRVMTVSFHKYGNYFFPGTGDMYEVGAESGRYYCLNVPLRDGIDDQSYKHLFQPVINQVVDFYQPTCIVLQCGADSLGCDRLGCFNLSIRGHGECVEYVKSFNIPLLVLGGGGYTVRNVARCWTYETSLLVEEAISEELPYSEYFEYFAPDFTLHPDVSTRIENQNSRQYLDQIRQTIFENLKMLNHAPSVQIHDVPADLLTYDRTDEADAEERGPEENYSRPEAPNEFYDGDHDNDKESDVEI
HDAC3, sequence (Q9Y618 395-489 partner limits assumed): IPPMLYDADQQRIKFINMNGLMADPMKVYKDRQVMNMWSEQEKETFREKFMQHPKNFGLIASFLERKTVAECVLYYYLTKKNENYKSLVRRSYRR

## COc1cc2nc(-c3cc(C)oc3C)cc(NCC3CCN(c4ncc(C(=O)NO)cn4)CC3)c2cc1OC [CM-1758, 2-[4-[[[2-(2,5-dimethyl-3-furyl)-6,7-dimethoxy-4-quinolyl]amino]methyl] -1-piperidyl]pyrimidine-5-carbohydroxamic acid]
[1]; MV4-11, 48 hours
  LINE-1 methylation (%) CG Position 1: 85%
  LINE-1 methylation (%) CG Position 2: 80% and 74%
  LINE-1 methylation (%) CG Position 3: 87%
  LINE-1 methylation (%) CG Position 4: 95% and 97%
  LINE-1 methylation (%) CG Position 5: 69% and 65%
[1]; MV4-11, 5 days
  LINE-1 methylation (%) CG Position 1: 79% and 75%
  LINE-1 methylation (%) CG Position 2: 77% and 79%
  LINE-1 methylation (%) CG Position 3: 82% and 84%
  LINE-1 methylation (%) CG Position 4: 92% and 86%
  LINE-1 methylation (%) CG Position 5: 66% and 60%
[2]; ML-2, 48 hours
  LINE-1 methylation (%) CG Position 1: 70% and 68%
  LINE-1 methylation (%) CG Position 2: 72% and 74%
  LINE-1 methylation (%) CG Position 3: 78% and 80%
  LINE-1 methylation (%) CG Position 4: 85% and 89%
  LINE-1 methylation (%) CG Position 5: 59% and 61%
[2]; ML-2, 10 days
  LINE-1 methylation (%) CG Position 1: 60%
  LINE-1 methylation (%) CG Position 2: 54% and 50%
  LINE-1 methylation (%) CG Position 3: 61% and 63%
  LINE-1 methylation (%) CG Position 4: 73% and 65%
  LINE-1 methylation (%) CG Position 5: 43% and 39%
[3]; MOLM-13, 48 hours
  LINE-1 methylation (%) CG Position 1: 99% and 97%
  LINE-1 methylation (%) CG Position 2: 85% and 81%
  LINE-1 methylation (%) CG Position 3: 100% and 96%
  LINE-1 methylation (%) CG Position 4: 100%
  LINE-1 methylation (%) CG Position 5: 70% and 82%
[3]; MOLM-13, 5 days
  LINE-1 methylation (%) CG Position 1: 69% and 59%
  LINE-1 methylation (%) CG Position 2: 63% and 69%
  LINE-1 methylation (%) CG Position 3: 78% and 80%
  LINE-1 methylation (%) CG Position 4: 83% and 87%
  LINE-1 methylation (%) CG Position 5: 58% and 54%
[4]; HL-60, 48 h
  LINE-1 methylation (%) CG Position 1 Replicate 1: 100%
  LINE-1 methylation (%) CG Position 1 Replicate 2: 100%
  LINE-1 methylation (%) CG Position 2 Replicate 1: 86%
  LINE-1 methylation (%) CG Position 2 Replicate 2: 82%
  LINE-1 methylation (%) CG Position 3 Replicate 1: 100%
  LINE-1 methylation (%) CG Position 3 Replicate 2: 100%
  LINE-1 methylation (%) CG Position 4 Replicate 1: 100%
  LINE-1 methylation (%) CG Position 4 Replicate 2: 100%
  LINE-1 methylation (%) CG Position 5 Replicate 1: 79%
  LINE-1 methylation (%) CG Position 5 Replicate 2: 83%
[4]; HL-60, 10 days
  LINE-1 methylation (%) CG Position 1: 76% and 78%
  LINE-1 methylation (%) CG Position 2: 61% and 65%
  LINE-1 methylation (%) CG Position 3: 77% and 85%
  LINE-1 methylation (%) CG Position 4: 87% and 93%
  LINE-1 methylation (%) CG Position 5: 57% and 55%
HDAC3
  IC50: 14 nM
HDAC3; 10 µM, source data of Fig. 1B
  inhibition at 10 µM: 90%
HDAC9
  IC50: 92 nM
HDAC9; 10 µM
  inhibition at 10 µM: 97%
HDAC5
  IC50: 270 nM
HDAC5; 10 µM
  inhibition at 10 µM: 98%
Rag2-/-γc-/- mice; 10 mg/kg i.p. daily over 3 weeks, 1-week washout, Rag2-/-γc-/- mice
  tolerability: well tolerated
Rag2-/-γc-/- mice; Week 3
  ALT (Counts (U/L)): 17 U/L and 4.5 U/L and 5.5 U/L and 9 U/L
  AST (Counts (U/L)): 148.5 U/L and 43 U/L and 38.5 U/L and 74 U/L
  Bilirubin (Counts (mg/dl)): 0 mg/dl (2×) and 0.05 mg/dl (2×)
  HDL (Counts (mmol/l)): 3.2 mmol/L and 2.05 mmol/L and 0.6 mmol/L and 2.55 mmol/L
  LCLC3 (Counts (mmol/l)): 0.2 mmol/l (2×) and 0.1 mmol/l (2×)
  UREA (Counts (mg/dl)): 20.7 mg/dL and 26.4 mg/dL and 33.1 mg/dL and 24.1 mg/dL
  Hematocrit (Counts (%)): 47.2% and 36.5% and 46.9% and 44.2%
  Hemoglobin (Counts (g/dl)): 17.4 g/dL and 13.4 g/dL and 17.3 g/dL and 16.8 g/dL
  PLT (Counts (K/O)): 870 K/O and 786 K/O and 1040 K/O and 1436 K/O
  RBC (Counts (K/O)): 9.53 K/O and 7.63 K/O and 9.68 K/O and 9.71 K/O
  WBC (Counts (K/O)): 3.3 K/O and 2.28 K/O and 4.16 K/O and 1.16 K/O
Rag2-/-γc-/- mice; Week 4
  ALT (Counts (U/L)): 14.1 U/L and 27 U/L and 21.9 U/L and 7.5 U/L
  AST (Counts (U/L)): 46.8 U/L and 244.8 U/L and 155.7 U/L and 62.1 U/L
  Bilirubin (Counts (mg/dl)): 0 mg/dL and 0.06 mg/dL and 0.12 mg/dL and 0.03 mg/dL
  HDL (Counts (mmol/l)): 2.61 mmol/L and 2.43 mmol/L and 2.31 mmol/L and 2.37 mmol/L
  LCLC3 (Counts (mmol/l)): 0.21 mmol/l (3×) and 0.27 mmol/l
  UREA (Counts (mg/dl)): 26.61 mg/dl and 26.58 mg/dl (2×) and 31.89 mg/dl
Rag2-/-γc-/- mice; 7d Washout
  Hematocrit (Counts (%)): 51% and 54.2% and 45.9% and 52.8%
  Hemoglobin (Counts (g/dl)): 17.7 g/dL and 17.6 g/dL and 16.1 g/dL and 17.4 g/dL
  PLT (Counts (K/O)): 1572 K/O and 1571 K/O and 1050 K/O and 1405 K/O
  RBC (Counts (K/O)): 9.8 K/O and 10.2 K/O and 8.86 K/O and 10.25 K/O
  WBC (Counts (K/O)): 1.4 K/O and 1.52 K/O and 3.74 K/O and 2.44 K/O
Rag2-/-γc-/- mice; Week 1
  Hematocrit (Counts (%)): 48.1% and 47% and 47.7% and 46.6%
  Hemoglobin (Counts (g/dl)): 17.8 g/dL and 17.5 g/dL and 18 g/dL and 17.7 g/dL
  PLT (Counts (K/O)): 866 K/O and 806 K/O and 880 K/O and 983 K/O
  RBC (Counts (K/O)): 9.36 K/O and 9.79 K/O and 10.18 K/O (2×)
  WBC (Counts (K/O)): 1.68 K/O and 1.52 K/O and 1.6 K/O and 1.16 K/O
Rag2-/-γc-/- mice; Week 2
  Hematocrit (Counts (%)): 51.3% and 48.5% and 45.7% and 50.4%
  Hemoglobin (Counts (g/dl)): 18.2 g/dL and 18 g/dL and 17.2 g/dL and 17.7 g/dL
  PLT (Counts (K/O)): 1496 K/O and 1628 K/O and 1531 K/O and 1908 K/O
  RBC (Counts (K/O)): 10.07 K/O and 9.97 K/O and 9.38 K/O and 10.01 K/O
  WBC (Counts (K/O)): 10.02 K/O and 4.3 K/O and 5.26 K/O and 5.18 K/O
